The record followed here is patent US20080242661A1, “Novel compounds useful for the treatment of degenerative & inflammatory diseases” (priority 2006, published 2008).

The structures appear in SMILES notation.

As usually defined, the IC50 is the point on the concentration scale where inhibition reaches its midpoint. Low values mean inhibition by little substance, high ones a need for much substance.

The target in the assay is purified PDE1A enzyme (Homo sapiens, UniProt P54750). The assay can be described thus: In vitro PDE1A assay, dose response (Biomol Cyclic Nucleotide Phosphodiesterase Assay Kit, colorimetric). In kind it is biochemical. The settings on record: 100 μM cAMP, 45 min at 37° C., 8 points from 20 μM, duplicate. An excerpt: For the dose response and further screening, we used the Cyclic Nucleotide Phosphodiesterase Assay Kit from Biomol, a colorimetric, non-radioactive assay. The basis for the assay is the cleavage of cAMP by PDE1A. The 5′AMP is further cleaved into the nucleoside and phosphate by the enzyme 5′-nucleotidase (catnr KI-307). The phosphate released due to enzymatic cleavage is quantified using BIOMOL GREEN™ reagent (catnr AK-111) in a modified Malachite Green assay 1,2. A PDE1A inhibitor will result in a decrease of the signal.
For the enzymatic reaction a mix of 25 μL with purified PDE1A enzyme, 100 μM cAMP, 5′Nucleotidase and the compound is made in a clear 384-plate. The reaction buffer is Tris 20 mM pH 7.4, 4 μg/ml calmodulin, 3 mM MgCl2, 1.5 mM CaCl2, 0.2 mg/mL BSA and 0.001% Brij-35. After an incubation of 45 minutes at 37° C., the reaction is stopped by the addition of 50 μL BIOMOL GREEN™ reagent. After 30 minutes incubation at room temperature, the readout is performed on the Envision (absorption at 615 nm).
All compounds are tested in duplicate starting from 20 μM followed by a ⅓ serial dilution, 8 points (20 μM-6.67 μM-2.22 μM-740 nM-247 nM-82 nM-27 nM-9 nM) in a final concentration of 1% DMSO. As the positive dose response control compound Vardenafil is used. For the calculation of z′ and PIN values 10 μM Vardenafil is used as positive control (100% inhibition) and 1% DMSO as negative control (0% inhibition).
The following compounds have been or can be prepared according to the synthetic methods described above. For the purpose of Table 2 below, activity of each compound, which can be determined using the PDE1A assay method described in above, is expressed as follows: […]
Take `CCCc1nn(C)c2c(=O)[nH]c(N(C)Cc3cc(-c4ccccc4)on3)nc12` [Example 25, 1-methyl-5-(methyl((5-phenylisoxazol-3-yl)methyl)amino)-3-propyl-1H-pyrazolo[4,3-d]pyrimidin-7(6H)-one]: the 50% inhibitory concentration (IC50) is less than 100 nM.

On to `CCCc1nn(C)c2c(=O)[nH]c(N(C)CCC(C)(C)C)nc12` [Example 110, 5-((3,3-dimethylbutyl)(methyl)amino)-1-methyl-3-propyl-1H-pyrazolo[4,3-d]pyrimidin-7(6H)-one], for which the IC50 is less than 100 nM.

For the compound `CCCc1nn(C)c2c(=O)[nH]c(NCc3cccc(CN4CCOCC4)c3)nc12` [Example 53, 1-methyl-5-(3-(morpholinomethyl)benzylamino)-3-propyl-1H-pyrazolo[4,3-d]pyrimidin-7(6H)-one], the IC50 is more than 500 nM.

Consider `CCCc1nn(C)c2c(=O)[nH]c(N(CCC)CCC)nc12` [Example 4, 5-(dipropylamino)-1-methyl-3-propyl-1H-pyrazolo[4,3-d]pyrimidin-7(6H)-one], for which the concentration for half-maximal inhibition (IC50) is less than 100 nM.

On to `CCCC(C)CN(C)c1nc2c(C(C)(C)C)nn(C)c2c(=O)[nH]1` (stereo not shown) [Example 115, 3-tert-butyl-1-methyl-5-(methyl(2-methylpentyl)amino)-1H-pyrazolo[4,3-d]pyrimidin-7(6H)-one], for which the IC50 was less than 100 nM.

Take `CCCc1nn(C)c2c(=O)[nH]c(NCc3cccc(N4CCCC4)c3)nc12` [Example 26, 1-methyl-3-propyl-5-(3-(pyrrolidin-1-yl)benzylamino)-1H-pyrazolo[4,3-d]pyrimidin-7(6H)-one]: the IC50 fell in the range of 101 to 500 nM.

Turning to `CC(C)CN(Cc1cccc(-n2cccc2)c1)c1nc2c(C(C)(C)C)nn(C)c2c(=O)[nH]1` [Example 100], the IC50 is less than 100 nM.

For the compound `CCCC(C)CN(Cc1cccc(N2CCOCC2)c1)c1nc2c(C(C)(C)C)nn(C)c2c(=O)[nH]1` (stereo not shown) [Example 104, 3-tert-butyl-1-methyl-5-((2-methylpentyl)(3-morpholinobenzyl)amino)-1H-pyrazolo[4,3-d]pyrimidin-7(6H)-one], the IC50 is less than 100 nM.

Consider `CN(Cc1ccc(F)cc1)c1nc2c(C3CCCC3)nn(C)c2c(=O)[nH]1` [Example 70, 3-cyclopentyl-5-((4-fluorobenzyl)(methyl)amino)-1-methyl-1H-pyrazolo[4,3-d]pyrimidin-7(6H)-one], for which the IC50 was less than 100 nM.

Compound `Cn1nc(C2CCCC2)c2nc(N3CCCC3c3ccccc3)[nH]c(=O)c21` (stereo not shown) [Example 86, 3-cyclopentyl-1-methyl-5-(2-phenylpyrrolidin-1-yl)-1H-pyrazolo[4,3-d]pyrimidin-7(6H)-one] showed an IC50 of less than 100 nM.

On to `CCCc1nn(C)c2c(=O)[nH]c(N(C)Cc3cccc(OCCN4CCOCC4)c3)nc12` [Example 48, 1-methyl-5-(methyl(3-(2-morpholinoethoxy)benzyl)amino)-3-propyl-1H-pyrazolo[4,3-d]pyrimidin-7(6H)-one], for which the IC50 was more than 500 nM.

On to `CCCc1nn(C)c2c(=O)[nH]c(N(C)Cc3cccc(N4CCOCC4)c3)nc12` [Example 10, 1-methyl-5-(methyl(3-morpholinobenzyl)amino)-3-propyl-1H-pyrazolo[4,3-d]pyrimidin-7(6H)-one], for which the half-maximal inhibitory concentration (IC50) was in the range of 101 to 500 nM.

`CCCc1nn(C)c2c(=O)[nH]c(N(C)Cc3ccc(Cl)cc3)nc12` [Example 17, 5-((4-chlorobenzyl)(methyl)amino)-1-methyl-3-propyl-1H-pyrazolo[4,3-d]pyrimidin-7(6H)-one] showed a half-inhibitory concentration (IC50) of less than 100 nM.

Compound `CC(C)CN(C)c1nc2c(C(C)(C)C)nn(C)c2c(=O)[nH]1` [Example 99, 3-tert-butyl-5-(isobutyl(methyl)amino)-1-methyl-1H-pyrazolo[4,3-d]pyrimidin-7(6H)-one] showed a concentration for half-maximal inhibition (IC50) of less than 100 nM.

Consider `CCCc1nn(C)c2c(=O)[nH]c(N(C)Cc3ccc(-c4ccccn4)cc3)nc12` [Example 44, 1-methyl-5-(methyl(4-(pyridin-2-yl)benzyl)amino)-3-propyl-1H-pyrazolo[4,3-d]pyrimidin-7(6H)-one], for which the 50% inhibitory concentration (IC50) is 101 to 500 nM.

For `CCCc1nn(C)c2c(=O)[nH]c(N(Cc3cccc(N4CCOCC4)c3)CC(C)C)nc12` [Example 74, 5-(isobutyl(3-morpholinobenzyl)amino)-1-methyl-3-propyl-1H-pyrazolo[4,3-d]pyrimidin-7(6H)-one], the 50% inhibitory concentration (IC50) is less than 100 nM.

Regarding `CCCc1nn(C)c2c(=O)[nH]c(N(Cc3cccc(-n4cccc4)c3)CC(C)C)nc12` [Example 101], the half-maximal inhibitory concentration (IC50) was less than 100 nM.

Turning to `CCCc1nn(C)c2c(=O)[nH]c(N(C)Cc3ccccc3)nc12` [Example 33, 5-(benzyl(methyl)amino)-1-methyl-3-propyl-1H-pyrazolo[4,3-d]pyrimidin-7(6H)-one], the IC50 lay in the range of 101 to 500 nM.

For the compound `CCCc1nn(C)c2c(=O)[nH]c(NCc3cccc(-c4ccn(C)n4)c3)nc12` [Example 67], the concentration for half-maximal inhibition (IC50) was less than 100 nM.

Turning to `CCCc1nn(C)c2c(=O)[nH]c(NCc3cc(C(F)(F)F)cc(C(F)(F)F)c3)nc12` [Example 31, 5-(3,5-bis(trifluoromethyl)benzylamino)-1-methyl-3-propyl-1H-pyrazolo[4,3-d]pyrimidin-7(6H)-one], the IC50 is more than 500 nM.

For the compound `CCCc1nn(C)c2c(=O)[nH]c(N3CCN(C(=O)C(c4ccccc4)c4ccccc4)CC3)nc12` [Example 59, 5-(4-(2,2-diphenylacetoyl)piperazin-1-yl)-1-methyl-3-propyl-1H-pyrazolo[4,3-d]pyrimidin-7(6H)-one], the 50% inhibitory concentration (IC50) was more than 500 nM.

As for `CCCc1nn(C)c2c(=O)[nH]c(NCc3ccc(Cl)c(Cl)c3)nc12` [Example 32, 5-(3,4-dichlorobenzylamino)-1-methyl-3-propyl-1H-pyrazolo[4,3-d]pyrimidin-7(6H)-one], the IC50 lay in the range of 101 to 500 nM.

On to `CCCc1nn(C)c2c(=O)[nH]c(N(C)Cc3cc(C)n(C)n3)nc12` [Example 14, 5-(((1,5-dimethyl-1H-pyrazol-3-yl)methyl)(methyl)amino)-1-methyl-3-propyl-1H-pyrazolo[4,3-d]pyrimidin-7(6H)-one], for which the IC50 is 101 to 500 nM.

As to `CCCc1nn(C)c2c(=O)[nH]c(N(C)Cc3ccc(OC)cc3)nc12` [Example 9, 5-((4-methoxybenzyl)(methyl)amino)-1-methyl-3-propyl-1H-pyrazolo[4,3-d]pyrimidin-7(6H)-one], the IC50 was less than 100 nM.

Turning to `CCCc1nn(C)c2c(=O)[nH]c(N(C)CCc3ccccc3)nc12` [Example 22, 1-methyl-5-(methyl(phenethyl)amino)-3-propyl-1H-pyrazolo[4,3-d]pyrimidin-7(6H)-one], the IC50 lay within 101 to 500 nM.

Take `CCCc1nn(C)c2c(=O)[nH]c(NCc3sc(-c4ccccc4)nc3C)nc12` [Example 72, 1-methyl-5-((4-methyl-2-phenylthiazol-5-yl)methylamino)-3-propyl-1H-pyrazolo[4,3-d]pyrimidin-7(6H)-one]: the IC50 is less than 100 nM.

Compound `CCCc1nn(C)c2c(=O)[nH]c(NCc3ccc(F)cc3)nc12` [Example 23, 5-(4-fluorobenzylamino)-1-methyl-3-propyl-1H-pyrazolo[4,3-d]pyrimidin-7(6H)-one] returned a half-maximal inhibitory concentration (IC50) of more than 500 nM.

On to `CCC(C)CN(Cc1cccc(N2CCOCC2)c1)c1nc2c(C(C)(C)C)nn(C)c2c(=O)[nH]1` (stereo not shown) [Example 117, 3-tert-butyl-1-methyl-5-((2-methylbutyl)(3-morpholinobenzyl)amino)-1H-pyrazolo[4,3-d]pyrimidin-7(6H)-one], for which the half-maximal inhibitory concentration (IC50) is less than 100 nM.

Consider `CN1CCN(c2cccc(CNc3nc4c(C(C)(C)C)nn(C)c4c(=O)[nH]3)c2)CC1` [Example 92, 3-tert-butyl-1-methyl-5-(3-(4-methylpiperazin-1-yl)benzylamino)-1H-pyrazolo[4,3-d]pyrimidin-7(6H)-one], for which the IC50 is less than 100 nM.

With `CC(C)CN(Cc1cccc(-n2cccn2)c1)c1nc2c(C(C)(C)C)nn(C)c2c(=O)[nH]1` [Example 93], the IC50 is less than 100 nM.

`CCCc1nn(C)c2c(=O)[nH]c(N(C)Cc3ccc(-c4ccncc4)cc3)nc12` [Example 40, 1-methyl-5-(methyl(4-(pyridin-4-yl)benzyl)amino)-3-propyl-1H-pyrazolo[4,3-d]pyrimidin-7(6H)-one] registered a 50% inhibitory concentration (IC50) of less than 100 nM.

`Cn1nc(C(C)(C)C)c2nc(N(CCC(C)(C)C)Cc3cccc(N4CCOCC4)c3)[nH]c(=O)c21` [Example 103, 3-tert-butyl-5-((3,3-dimethylbutyl)(3-morpholinobenzyl)amino)-1-methyl-1H-pyrazolo[4,3-d]pyrimidin-7(6H)-one] came in with an IC50 of less than 100 nM.

`CCCC(C)CN(Cc1cccc(-n2cccn2)c1)c1nc2c(C(C)(C)C)nn(C)c2c(=O)[nH]1` (stereo not shown) [Example 122]: the IC50 was less than 100 nM.

Consider `CCCc1nn(C)c2c(=O)[nH]c(NCc3cccc(OCCN4CCOCC4)c3)nc12` [Example 55, 1-methyl-5-(3-(2-morpholinoethoxy)benzylamino)-3-propyl-1H-pyrazolo[4,3-d]pyrimidin-7(6H)-one], for which the IC50 was in the range of 101 to 500 nM.
